# From patent US20180237751A1, “METHOD FOR GENERATING BETA CELLS” (THE TRUSTEES OF COLUMBIA UNIVERSITY IN THE CITY OF NEW YORK, priority 2011, published 2018)
# Tests used:
# Format in all cases: cell-based, human
# [1] = system: GCK mutant iPS-derived beta-like cells; test: Insulin (C-peptide) secretion assay in vitro, GCK mutant beta-like cells; conditions: 1 hour, identical to control cells
# Description: Typically, cells were cultured in 12-well dishes. After 12 days of differentiation, cells were washed for 1 hour in CMRL medium. Cells were then incubated in 300 μl CMRL medium containing 5.6 mM glucose for 1 hour and the medium was collected. Subsequently, 300 μl CMRL medium containing 16.9 mM glucose or other secretagogues was used to treat cells for 1 hour, following which the medium was collected. For in vivo tests, mice were deprived of food overnight with ad libitium access to water. After 12-14 hours of fasting, capillary blood glucose concentrations were determined by tail vein bleed using an AlphaTRACK glucometer (Abbott). Venous blood samples were collected via the submandibular vein. Intraperitoneal glucose was then administered (1 mg/g body weight) and ½ hour later blood samples were obtained via the submandibular vein. Blood samples were kept at room temperature for 2 hours and serum was obtained by centrifuging blood samples at 4000 rpm for 15 min. C-peptide concentrations in medium or mouse serum were measure using an ultrasensitive human C-peptide ELISA kit according to manufacturer's instructions (Mercodia). […]
# Typically, cells were cultured in 12-well dishes. […] After 12-14 hours of fasting, capillary blood glucose concentrations were determined by tail bleed using an AlphaTRACK glucometer (Abbott). […]
# Wolfram iPS cells = test: Unfolded protein response (UPR) analysis, Wolfram iPS cells and fibroblasts
# Description: (§1) Wolfram and control iPSCs or fibroblasts were incubated with indicated dosages of thapsigargin (TG) or tunicamycin (TM) (Both were from Sigma) for 6 hours after an overnight starvation. 1 mM Sodium 4-phenylbutyrate (4PBA) (EMD Chemicals Inc.) was administrated one hour prior to and through TG or TM treatment. Cells were harvested and subjected to RNA and protein analysis. In vitro differentiated beta cells were treated with 10 nM TG for 12 hours, or 0.5 μg/ml TM for 6 hours with or without 1 mM 4PBA treatment one hour prior to and through TG or TM treatment. For long-term 4PBA treatment, cells were incubated with 1 mM 4PBA starting on day 9 of differentiation, when cells reached pancreatic endoderm stage, and maintained until day 15. Then cells were subjected to insulin secretion, RNA and protein analysis. RNA was isolated using RNAeasy plus kit (Qiagen). cDNA was generated by using RT kit (Promega). Primers for PCR analysis were as follows: XBP-1 for gel-imaging (Lee, Won et al.) forward 5′ […] 3′ (SEQ ID NO:1), reverse 5′ […] 3′ (SEQ ID NO:2); sXBP-1 for QPCR (Merquiol, Uzi et al. 2011) forward 5′ CTGAGTCCGCAGCAGGTG 3′(SEQ ID NO:3), reverse 5′ […] 3′ (SEQ ID NO:4); GRP78 forward 5′ […] 3′(SEQ ID NO:5), reverse 5′ […] 3′ (SEQ ID NO:6); Insulin forward 5′ […] 3′(SEQ ID NO:7), reverse 5′ CAATGCCACGCTTCTGC 3′(SEQ ID NO:8). GRP78 protein level was determined by western blot using mouse-anti GRP78 antibody (Santa Cruz, sc-166490).
# control iPS cells = test: Unfolded protein response (UPR) analysis, control iPS cells; conditions: 10 nM TG, 6 hour
# Description: as §1, with “3′(SEQ ID NO:7), reverse 5′ CAATGCCACGCTTCTGC 3′(SEQ ID NO:8).” left out
# Wolfram beta cells [2] = test: UPR, insulin and proinsulin content and ER morphology in Wolfram beta cells
# Description: (§2) Human ES or iPS cells were dissociated by Dispase (3-5 mins) and Accutase (5 mins, Sigma). Cells were suspended in human ES medium containing 10 μM Y27632, a ROCK inhibitor, and filtered through a 70 μm cell strainer. Then cells were seeded at a density of 800,000 cells/well in 12-well plates. After 1 or 2 days, when cells reached 80-90% confluence, differentiation was started. On Day 1: cells were briefly washed once with RPMI medium, then were treated with Activin A (100 ng/ml), Wnt3A (25 ng/ml) and 0.075 mM EGTA in RPMI medium. On day 2-3: cells were treated with Activin A (100 ng/ml) and 0.2% FBS in RPMI medium. On day 4-5: cells were treated with FGF10 (50 ng/ml), KAAD-cyclopamine (0.25 μM) and 2% FBS in RPMI medium. On day 6-8: cells were treated with FGF10 (50 ng/ml), KAAD-cyclopamine ([…] (2 μM) and LDN-193189 (250 nM), B27 in DMEM medium. On day 9-10: cells were treated with exendin-4 (50 ng/ml), SB431542 (2 μM) and B27 in CMRL medium. On day 11-12, cells were treated with T4 (thyroid hormone, 0.02 nM) and B27 in CMRL medium. After day 12, cells were incubated in CMRL medium with B27. Cells were analyzed between day 14 and day 16.
# as §1
# (§3) To determine Insulin or proinsulin content within the cell, differentiated cells were collected and lysed by M-PER protein extraction reagent (Thermo Scientific). Proinsulin and insulin contents were measured by using human proinsulin and insulin ELISA kits (Mercodia). Quantification of positively stained cells was analyzed using Celigo Cytometer system (Cyntellect), and flow cytometry analysis. To normalize insulin content to beta cell number, cultures were dissociated to single cells, and divided into three fractions: 20% of cells for cell number quantification, 40% for RNA analysis and 40% for ELISA assay to determine insulin content.
# Differentiated beta cells were treated with or without 10 nM TG for 12 hours, and then fixed in 2.5% glutaraldehyde in 0.1 M Sorenson's buffer (pH 7.2) for one hour. Samples were processed and imaged by Dignostic Service, Department of Pathology and Cell Biology, Columbia University. Secretory granule structure and endoplasmic reticulum (ER) morphology were visually recognized. The number of granules was determined using ImageJ software.
# control beta cells [3] = test: UPR, insulin and proinsulin content and ER morphology in control beta cells
# Description: as §2
# Wolfram and control iPSCs or fibroblasts were incubated with indicated dosages of thapsigargin (TG) or tunicamycin (TM) (Both were from Sigma) for 6 hours after an overnight starvation. 1 mM Sodium 4-phenylbutyrate (4PBA) (EMD Chemicals Inc.) was administrated one hour prior to and through TG or TM treatment. Cells were harvested and subjected to RNA and protein analysis. In vitro differentiated beta cells were treated with 10 nM TG for 12 hours, or 0.5 μg/ml TM for 6 hours with or without 1 mM 4PBA treatment one hour prior to and through TG or TM treatment. […] GRP78 protein level was determined by western blot using mouse-anti GRP78 antibody (Santa Cruz, sc-166490).
# as §3
# Differentiated beta cells were treated with or without 10 nM TG for 12 hours, and then fixed in 2.5% glutaraldehyde in 0.1 M Sorenson's buffer (pH 7.2) for one hour. […] The number of granules was determined using ImageJ software.
# Wolfram beta cells [4] = test: In vitro insulin and glucagon secretion assay, Wolfram beta cells
# Description: as §1
# (§4) Cells were cultured in 12-well dishes. After 14 days of differentiation, cells were washed for 1 hour in CMRL medium, then incubated in 300 μl CMRL medium containing 5.6 mM glucose for 1 hour and the medium was collected. After that, 300 μl CMRL medium containing 16.9 mM glucose, or 15 mM arginine, or 30 mM potassium, or 1 mM DBcAMP+16.9 mM glucose was used to treat cells for 1 hour and then the medium was collected. Human C-peptide concentration in the medium was measured by ultra-sensitive human C-peptide ELISA kit according to manufacturer's instructions (Mercodia). Glucagon levels in medium were measured by using Glucagon ELISA kit (ALPCO Diagnostics).
# control beta cells [5] = test: In vitro insulin and glucagon secretion assay, control beta cells
# Description: as §1, §4
# [6] = Wolfram beta cells, TG 10 nM, 12 hours
# [7] = control cells, arginine stimulation, TG treatment
smiles,measurement,setting,value
COC(=O)C1=C(C)NC(C)=C([N+](=O)[O-])C1c1ccccc1C(F)(F)F (stereo not drawn) [Bay K8644],increase in C-peptide release,[1]; GCK^G299R/+ and GCK^G299R/hygro cells,3-5 fold
same,increase in C-peptide release,[1]; GCK^G299R/+ cells,5 fold
"C/C=C(/C)C(=O)O[C@H]1C(C)=C2[C@H]([C@@H]1OC(=O)CCCCCCC)[C@@](C)(OC(C)=O)C[C@H](OC(=O)CCC)[C@@]1(O)[C@H]2OC(=O)[C@@]1(C)O [TG, thapsigargin]",increase of GRP78 mRNA,"Wolfram iPS cells; Wolfram cells, 10 nM TG, 6 hour",4 fold
same,GRP78 mRNA level,"Wolfram iPS cells; stem cells, increasing concentration of TG, 6 hours",dose-dependent increase
same,increase of GRP78 mRNA,control iPS cells,2 fold
same,proinsulin to insulin ratio,"Wolfram beta cells [2]; Wolfram beta cells challenged with TG, ~0.55 without TG",0.73
same,ER morphology (TEM),"Wolfram beta cells [2]; Wolfram beta cells, 12 hours of 10 nM TG",greatly dilated
same,reduction of insulin production at the mRNA level,Wolfram beta cells [2]; [6],46%
same,reduction of insulin production at the protein level,Wolfram beta cells [2]; [6],31%
same,proinsulin to insulin ratio,"control beta cells [3]; control beta cells challenged with TG, ~0.47 without TG",0.51
same,ER morphology (TEM),"control beta cells [3]; control cells, 12 hours of 10 nM TG",remained unaffected
same,production of insulin,"control beta cells [3]; control cells, TG 10 nM, 12 hours",unaffected
same,insulin secretion in response to 16.9 mM glucose,"Wolfram beta cells [4]; TG treated Wolfram cells (10 nM, 12 hour)",failed to increase insulin secretion
same,reduction of stimulated glucagon secretion,"Wolfram beta cells [4]; WFS1 cells, arginine stimulation, TG treatment",24%
same,reduction of stimulated insulin secretion,"Wolfram beta cells [4]; WFS1 mutant cells, arginine stimulation, TG treatment",43%
same,response to DBcAMP (C-peptide secretion),"Wolfram beta cells [4]; Wolfram beta cells treated with TG, 2.6 without TG",1.2 fold
same,insulin-secretion in response to potassium,"Wolfram beta cells [4]; Wolfram beta cells treated with TG, 3.9 without TG",2.2 fold
same,fold increase of C-peptide in the medium in response to arginine,"Wolfram beta cells [4]; Wolfram beta cells treated with TG, 4.0 without TG",2.3 fold
same,increase of insulin output in response to 16.9 mM glucose,"control beta cells [5]; TG treated control beta cells (10 nM, 12 hour)",1.6 fold
same,reduction of stimulated glucagon secretion,control beta cells [5]; [7],28%
same,reduction of stimulated insulin secretion,control beta cells [5]; [7],−3%
